Source: patent publication US20160318987A1 (MEDIMMUNE LIMITED, priority 2013, published 2016)
Where a SMILES comes first, the peptide text is derived from it. [ ]: non-standard residue; d: D form. αMeF = C[C@](N)(Cc1ccccc1)C(=O)O; Aib = CC(C)(N)C(=O)O

Key:
[1] = biological target: T1, hGLP-1R (Homo sapiens, UniProt P43220); experiment: cAMP functional assay, cells expressing human GLP-1 receptor (primary assay); assay type: cell-based; details: n = 2
T1 construct: expressed in transfected cells
T1 sequence (P43220 24-463): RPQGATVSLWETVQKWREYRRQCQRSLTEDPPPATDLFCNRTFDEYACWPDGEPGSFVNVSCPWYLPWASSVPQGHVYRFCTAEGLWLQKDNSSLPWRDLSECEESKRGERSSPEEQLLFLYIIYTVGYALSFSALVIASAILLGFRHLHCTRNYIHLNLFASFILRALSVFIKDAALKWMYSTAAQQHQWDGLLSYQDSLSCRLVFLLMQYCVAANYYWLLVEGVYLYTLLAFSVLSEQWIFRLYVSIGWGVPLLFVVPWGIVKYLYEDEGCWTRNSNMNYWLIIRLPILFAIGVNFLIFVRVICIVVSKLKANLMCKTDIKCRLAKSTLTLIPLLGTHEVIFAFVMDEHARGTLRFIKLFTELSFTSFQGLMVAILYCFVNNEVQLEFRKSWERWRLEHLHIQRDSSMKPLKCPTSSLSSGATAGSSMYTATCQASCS
Protocol: (§1) The biological activities/receptor potencies of the synthetic GLP-1 peptides described herein are suitably tested for biological activity, e.g., stimulation of one or more cellular receptor responses. Stable cell lines expressing human, mouse, rat, or dog GLP-1 receptor (GLP-1R), glucagon receptor (GCGR) or glucose-dependent insulinotropic peptide (gastric inhibitory polypeptide) receptor (GIPR) are generated in HEK293 cells or CHO cells by standard methods.
(§2) cAMP assays were performed using “assay buffer”: Assay Buffer: 0.1% BSA (Sigma #A3059) in HBSS (Sigma #H8264) with 25 mM HEPES, pH 7.4 and containing 0.5 mM IBMX (Sigma #17018).
(§3) Low protein binding 384-well plates (Greiner #781280) are used to perform eleven 1 in 5 serial dilutions of test samples which are made in assay buffer. All sample dilutions are made in duplicate.
(§4) A frozen cryo-vial of cells expressing the receptor of interest is thawed rapidly in a water-bath, transferred to pre-warmed assay buffer and spun at 240× g for 5 minutes. Cells are re-suspended in assay buffer at a batch-dependent optimized concentration (e.g. hGCGR cells at 2×10^5 cells/ml, hGLP-1R and hGIPR cells at 1×10^5 cells /ml).
(§5) From the dilution plate, a 5 μL replica is stamped onto a black shallow-well u-bottom 384-well plate (Corning #3676). To this, 5 μL cell suspension is added and the plates incubated at room temperature for 30 minutes.
(§6) cAMP levels are measured using a commercially available cAMP dynamic 2 HTRF kit (Cisbio, Cat #62AM4PEJ), following the two step protocol as per manufacturer's recommendations. In brief; anti-cAMP cryptate (donor fluorophore) and cAMP-d2 (acceptor fluorophore) are made up separately by diluting each 1/20 in conjugate & lysis buffer provided in the kit. 5 μL anti-cAMP cryptate is added to all wells of the assay plate, and 5 μL cAMP-d2 is added to all wells except non-specific binding (NSB) wells, to which conjugate and lysis buffer are added. Plates are incubated at room temperature for one hour and then read on an Envision (Perkin Elmer) using excitation wavelength of 320 nm and emission wavelengths of 620 nm & 665 nm. EC50 values of the synthetic peptides determined in cAMP assays are then determined.

[2] = biological target: T2, hGIP-R (Homo sapiens, UniProt P48546); experiment: cAMP functional assay, cells expressing human GIP receptor (primary assay); assay type: cell-based; details: n = 2
T2 construct: expressed in transfected cells
T2 sequence (P48546 22-466): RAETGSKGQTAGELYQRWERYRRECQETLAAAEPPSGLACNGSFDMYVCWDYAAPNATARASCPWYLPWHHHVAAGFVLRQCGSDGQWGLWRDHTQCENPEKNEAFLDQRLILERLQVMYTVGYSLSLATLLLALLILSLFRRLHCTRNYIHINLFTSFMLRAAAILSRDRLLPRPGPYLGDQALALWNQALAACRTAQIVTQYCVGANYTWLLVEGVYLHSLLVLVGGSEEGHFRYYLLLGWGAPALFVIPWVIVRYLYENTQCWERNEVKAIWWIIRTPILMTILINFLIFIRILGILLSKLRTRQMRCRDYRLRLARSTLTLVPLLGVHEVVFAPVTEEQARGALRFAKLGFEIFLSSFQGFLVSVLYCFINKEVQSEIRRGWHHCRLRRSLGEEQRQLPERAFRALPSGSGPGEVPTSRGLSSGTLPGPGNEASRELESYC
Protocol: as §1, §2, §3, §4, §5, §6

EC50 [1] [nM] | EC50 [2] [nM] | Compound
0.0183 | 102 | CC[C@H](C)[C@H](NC(=O)[C@H](Cc1ccccc1)NC(=O)[C@H](CCC(=O)O)NC(=O)[C@H](CCCCN)NC(=O)[C@H](C)NC(=O)[C@H](C)NC(=O)[C@H](CCC(N)=O)NC(=O)CNC(=O)[C@H](CCC(=O)O)NC(=O)[C@H](CC(C)C)NC(=O)[C@H](Cc1ccccc1)NC(=O)[C@H](CO)NC(=O)[C@H](CO)NC(=O)[C@@H](NC(=O)[C@H](CC(=O)O)NC(=O)[C@H](CO)NC(=O)[C@@H](NC(=O)[C@H](Cc1ccccc1)NC(=O)[C@H](CO)NC(=O)CNC(=O)[C@H](CCC(=O)O)NC(=O)C(C)(C)NC(=O)[C@@H](N)Cc1c[nH]cn1)[C@@H](C)O)C(C)C)C(=O)N[C@@H](C)C(=O)N[C@@H](Cc1ccccc1)C(=O)N[C@@H](CC(C)C)C(=O)N[C@H](C(=O)N[C@@H](CCCCN)C(=O)NCC(=O)N[C@@H](CCCNC(=N)N)C(N)=O)C(C)C [SEQ ID NO: 33, H-(Aib)^2-EG-(S)^5-FTSDV^10 SS-(F)^13-LE^15 GQAAK^20 EFIA-(F)^25 LVKGR^30] (H-H[Aib]EGSFTSDVSSFLEGQAAKEFIAFLVKGR-NH2)
0.0225 | 102 | CC[C@H](C)[C@H](NC(=O)[C@](C)(Cc1ccccc1)NC(=O)[C@H](CCC(=O)O)NC(=O)[C@H](CCCCN)NC(=O)[C@H](C)NC(=O)[C@H](C)NC(=O)[C@H](CCC(N)=O)NC(=O)CNC(=O)[C@H](CCC(=O)O)NC(=O)[C@H](CC(C)C)NC(=O)[C@](C)(Cc1ccccc1)NC(=O)[C@H](CO)NC(=O)[C@H](CO)NC(=O)[C@@H](NC(=O)[C@H](CC(=O)O)NC(=O)[C@H](CO)NC(=O)[C@@H](NC(=O)[C@](C)(Cc1ccccc1)NC(=O)[C@H](CO)NC(=O)CNC(=O)[C@H](CCC(=O)O)NC(=O)C(C)(C)NC(=O)[C@@H](N)Cc1c[nH]cn1)[C@@H](C)O)C(C)C)C(=O)N[C@@H](C)C(=O)N[C@@H](Cc1c[nH]c2ccccc12)C(=O)N[C@@H](CC(C)C)C(=O)N[C@H](C(=O)N[C@@H](CCCCN)C(=O)NCC(=O)N[C@@H](CCCNC(=N)N)C(N)=O)C(C)C [SEQ ID NO: 34, H-(Aib)^2-EG-(S)^5-(α-MeF)^6-TSDV^10 SS-(α-MeF)^13-LE^15 GQAAK^20 E-(α-MeF)^22-IAW^25 LVKGR^30] (H-H[Aib]EGS[αMeF]TSDVSS[αMeF]LEGQAAKE[αMeF]IAWLVKGR-NH2)
0.0201 | 102 | CC[C@H](C)[C@H](NC(=O)[C@H](Cc1ccccc1)NC(=O)[C@H](CCC(=O)O)NC(=O)[C@H](CCCCN)NC(=O)[C@H](C)NC(=O)[C@H](C)NC(=O)[C@H](CCC(N)=O)NC(=O)CNC(=O)[C@H](CCC(=O)O)NC(=O)[C@H](CC(C)C)NC(=O)[C@](C)(Cc1ccccc1)NC(=O)[C@H](CO)NC(=O)[C@H](CO)NC(=O)[C@@H](NC(=O)[C@H](CC(=O)O)NC(=O)[C@H](CO)NC(=O)[C@@H](NC(=O)[C@](C)(Cc1ccccc1)NC(=O)[C@H](CO)NC(=O)CNC(=O)[C@H](CCC(=O)O)NC(=O)C(C)(C)NC(=O)[C@@H](N)Cc1c[nH]cn1)[C@@H](C)O)C(C)C)C(=O)N[C@@H](C)C(=O)N[C@@](C)(Cc1ccccc1)C(=O)N[C@@H](CC(C)C)C(=O)N[C@H](C(=O)N[C@@H](CCCCN)C(=O)NCC(=O)N[C@@H](CCCNC(=N)N)C(N)=O)C(C)C [SEQ ID NO: 35, H-(Aib)^2-EG-(S)^5-(α-MeF)^6-TSDV^10 SS-(α-MeF)^13-LE^15 GQAAK^20 EFIA-(α-MeF)^25 LVKGR^30] (H-H[Aib]EGS[αMeF]TSDVSS[αMeF]LEGQAAKEFIA[αMeF]LVKGR-NH2)
